According to US6994954B2, “System for organ and tissue preservation and hypothermic blood substitution” (Organ Recovery Systems, Inc., priority 2000, dated 2006):

Assays:
[1] = test system: A10 smooth muscle cells; experiment: Cryopreservation of A10 cells with DMSO in vehicle solution, Alamar Blue; assay type: cell-based; details: freezing and thawing
Experimental: (§1) The same system as that described above for cells in microtiter plates was used to evaluate a preferred embodiment of the exemplary High-K Intracellular-base solution as a new carrier solution for cryoprotective additives (CPA). Specifically, a phosphate-free formulation of the new High-K solution was prepared to avoid the known precipitation of divalent cation phosphates in the presence of the cryoprotectant DMSO at low temperatures. Cell survival was compared after freezing and thawing in the presence of a range of concentrations of DMSO prepared in either the new phosphate-free HK-cryoprotectant vehicle solution (HK-CV), or EuroCollins medium. EuroCollins is an organ preservation solution that has also been used in the field of cryobiology as a vehicle solution for cryoprotectants.
(§2) Cells were plated at 2×10^4 cells/well and after overnight incubation regular culture medium was replaced with the experimental CPA mixtures using the following protocol: Plates were cooled to −80° C. at a controlled rate (1° C./min) and stored overnight at −135° C. The plates were thawed using a two-step warming protocol and the CPA was diluted using mannitol as an osmotic buffer. Cell viability was assessed using the Alamar Blue assay of cellular metabolic activity at 37° C. FIGS. 15 and 16 show the comparative viability of two cell types after cryopreservation in the respective media. […]

[2] = test system: bovine corneal endothelial (BCE) cells; experiment: Cryopreservation of BCE cells with DMSO in vehicle solution, Alamar Blue; assay type: cell-based; details: freezing and thawing
Experimental: as §1, §2

C[S+](C)[O-] [DMSO, Dimethylsulfoxide]
DMSO concentration giving optimum survival [1]: 1 to 2 M | DMSO concentration giving optimum survival [2]: 1 to 2 M
